Usually melting point stands for the temperature, or range, at which the solid turns liquid.

`COC(=O)c1ccc(OCCc2nc(-c3ccccc3)oc2C)cc1O` showed a melting point of 133 to 134 °C.

With `CC#CCOc1ccc(S(=O)(=O)NCCC(=O)NO)cc1`, the melting point is 118 to 128 °C.

In turn, `C=CCONC(=O)c1nc(Cl)cc(N)c1Cl` had a melting point of 161 to 163 °C.

In turn, `CC1(C)C=Cc2cc(-c3nnnn3CCN3C(=O)c4ccccc4C3=O)ccc2O1` had a melting point of 178 to 182 °C.

`CC12CCC(CC1=C=C1C=CC(Nc3nc(Cl)nc(NC4=CCC(=C=C5CC6CCC5(C)C6(C)C)C=C4)n3)=CC1)C2(C)C`: the melting point worked out at 221 °C.

As to `CC(=O)Oc1cccc2c1C(=O)c1c(OC(C)=O)cccc1C2C(=O)C1CCCC1`, the melting point came out at 180 °C.

`CN(C)c1cncc(I)n1` had a melting point of 46 to 48 °C.

For `COC(=O)[C@]1(OS(C)(=O)=O)C[C@H](CC(C)C)[C@@H](O)[C@H](O)C1`, the melting point is 122 to 123 °C.

Consider `CC(C)c1nc(CN(C)C(=O)NC(C(=O)NC(Cc2ccccc2)CC(O)C(Cc2ccccc2)NC(=O)OCc2ccno2)C(C)C)cs1` (configuration not stated), for which the melting point was 60 to 62 °C.

With `CC(O)CNC(=O)c1cc2ccccc2o1` (configuration not stated), the melting point fell in the range of 90 to 91 °C.

For the molecule `NC(=O)c1c(N)cccc1N1CCCC1`, the melting point is 144 to 146 °C.

In the case of `O=C(CN1CCC(O)CC1)Nc1cccc2c1C(=O)c1c-2n[nH]c1-c1ccc(N2CCOCC2)cc1`, the melting point worked out at 245 °C.

On to `Cc1cc(C)c(C(=O)Oc2ccccc2)c(O)c1C`, for which the melting point came to 74 °C.

Regarding `O=C(c1ccccc1)C(Cc1ccc(Cl)cc1)c1cccnn1` (configuration not stated), the melting point lay within 140 to 142 °C.

With `O=C(Nc1cccc(Nc2nc(-c3cccnc3)cs2)c1)c1ccc(/C=C/ONO)s1`, the melting point came to 206 °C.

The molecule `CC(C)c1cc([N+](=O)[O-])ccc1OCC1CO1` (configuration not stated) had a melting point of 60 to 62 °C.

In turn, `CS(=O)(=O)NC(=O)c1ccccc1Nc1ccc(CCCc2ccc(Cl)c(Cl)c2)cc1` returned a melting point of 53 to 61 °C.

In the case of `CCN(CC)CCNc1cc(Cl)c(N)c(CCN(CC)CC)c1[N+](=O)[O-]`, the melting point was 90 °C.

The molecule `CCCCCC(O)C1C(=O)NC(C(=O)SCc2ccccc2)(C(O)C2C=CCCC2)C1(C)O` (configuration not stated) registered a melting point of 123 °C.

Regarding `CCN(CC)CCN(CCCCCSc1nc(-c2ccccc2)c(-c2ccccc2)[nH]1)C(=O)NC(C)C`, the melting point lay within 58 to 59 °C.

In the case of `CC(C)(C)OC(=O)N1CCC(CI)CC1`, the melting point lay in the range of 58 to 59 °C.

Turning to `Cc1nc2c(cnn2-c2c(Cl)cc(C(F)(F)F)cc2Cl)c(=O)[nH]1`, the melting point was 300 °C.

In turn, `O=C1c2cccc3c([N+](=O)[O-])c(Br)cc(c23)C(=O)N1O` gave a melting point of 232 to 233 °C.

Regarding `CNc1nc(-c2ccc(F)cc2)c(-c2ccc(S(C)(=O)=O)cc2)s1`, the melting point fell in the range of 243 to 244 °C.

As to `CCn1nc(C)c2nc(C)nc(N3CC3)c21`, the melting point lay in the range of 66 to 69 °C.

`CCCCCCOc1ccc(C(=O)CSc2ccnc3ccccc23)c(OC)c1` had a melting point of 88.5 to 89.5 °C.

`[N-]=[N+]=NC1CC(n2ccc(N)nc2=O)OC1CO` (configuration not stated): the melting point fell in the range of 174 to 176 °C.

On to `COc1c(CN2C(=O)c3ccccc3C2=O)c2c(c3c1OC(C)(C)C3)C(c1ccccc1)=NC(C)(C)C2`, for which the melting point was 193 to 195 °C.

`Cc1nc2c(Cl)cccc2c(=O)n1C1CCC(=O)NC1=O` (configuration not stated) displayed a melting point of 290 to 292 °C.

The molecule `O=C1C2CN(CCc3ccc(Cl)cc3)CC2C(=O)N1c1cc(Cl)cc(Cl)c1` (configuration not stated) gave a melting point of 115 °C.

`Cc1ccc2[nH]c(=O)c(C(=O)NC3CCCCC3)c(O)c2c1` came in with a melting point of 269 °C.

As for `Cn1c(=O)oc(=O)c2cc(F)ccc21`, the melting point stood at 133 °C.

In the case of `O=C1Nc2ccc(I)cc2C1=NNC(=O)c1ccc(OCc2ccccc2)cc1`, the melting point was 298 °C.

`O=C(NCCC1CCCCC1)c1cc(-c2ccc(Cl)c(C(=O)O)n2)ccc1Cl` had a melting point of 116 to 120 °C.

Molecule `CCOc1ccc(CCNC(=O)C(F)(F)F)cc1S(=O)(=O)N=CN(C)C` yielded a melting point of 145 °C.

As to `CS(=O)(=O)NCc1cc(-c2ccccc2)c2c(n1)OCCN(Cc1cc(C(F)(F)F)cc(C(F)(F)F)c1)C2=O`, the melting point fell in the range of 194 to 195 °C.

Take `CCn1c(C(OCCO)(c2cccc(C(F)(F)F)c2)c2cccc(C(F)(F)F)c2)nc(-c2ccncc2)c1-c1ccc(Cl)cc1`: the melting point lay in the range of 222 to 223 °C.

`CNC(=O)c1ccccc1Nc1nc(Nc2ccc3c(c2)N(C)C(=O)CCC3)ncc1Cl`: the melting point lay within 292 to 294 °C.

For `CCCc1c(C(=O)C(C)C)c2ccc(NC(=O)NC)cc2n1Cc1ccccc1Cl`, the melting point is 106 to 108 °C.

`COc1cc(C=C2OC(C)=CC2=O)cc(OC)c1O` had a melting point of 188 to 190 °C.

Molecule `CN(C)CCOc1nc(NCc2cccs2)nc(Nc2cccc(C(F)(F)F)c2)n1` returned a melting point of 51 to 53 °C.

In the case of `CC(=O)N(C)c1nc(C(C)(C)C)nn1-c1c(Cl)cc(Cl)cc1Cl`, the melting point was in the range of 93 to 94 °C.

Molecule `CCOC(=O)CCc1cn(-c2ccccc2)nc1OCc1ccccc1` showed a melting point of 123 to 124 °C.

In turn, `CCCCCCCCNC(=O)c1c(N)cc(Cl)cc1Cl` returned a melting point of 105 to 109 °C.

With `NNc1nncc(-c2ccccc2)n1`, the melting point lay in the range of 144 to 146 °C.

For the molecule `CCc1nc2c(c(C)c(C)n3nnnc23)n1CCOCCN1CCCS1(=O)=O`, the melting point lay in the range of 176 to 178 °C.

With `CCOC(=O)C(OCc1ccc(-c2ccc(Cl)cc2)cc1)(C(F)(F)F)C(F)(F)F`, the melting point is 62 to 62.5 °C.

In turn, `CCCc1c(OCCCCCCc2ccc(OC)c(OC)c2Cl)ccc(C(=O)O)c1O` registered a melting point of 107 to 108 °C.

Take `CCOC(=O)c1cnc2sc(-c3ccc(OC)cc3)c(CN(C)Cc3ccccc3)c2c1O`: the melting point fell in the range of 175 to 177 °C.

In turn, `CC(=O)c1nc2ccc(Cl)cc2cc1OCc1ccccc1` showed a melting point of 107 to 110 °C.

With `CN1CCC(c2nn(C(=O)c3ccc(Cl)c(Cl)c3)c3ccccc23)CC1`, the melting point was 187 to 189 °C.

The molecule `CN(C)c1nc(C(F)(F)F)cc(=O)o1` had a melting point of 79 °C.

For the molecule `C=CCn1cnc2c1c(=O)n(CCCCC(C)O)c(=O)n2C` (configuration not stated), the melting point was determined as 71 °C.

In the case of `COC(=O)c1cc(S(=O)(=O)Cl)cc(C(=O)OC)c1[N+](=O)[O-]`, the melting point lay within 124 to 125 °C.

Turning to `O=C(Nc1cccc(Cl)c1)ONC1=Nc2ccc([N+](=O)[O-])cc2C(c2ccccc2)=NC1`, the melting point was 123 to 125 °C.

The molecule `CC(=O)Oc1cc2c(c3ccccc13)Nc1ccccc1O2` showed a melting point of 152 to 155 °C.

`COC(=O)CCCc1nc2[nH]c3ccccc3c2c(=O)[nH]1` came in with a melting point of 258 °C.

Molecule `CCCc1cc(=O)oc2cc(OC(=O)C(C)(C)C)cc(OC(=O)C(C)(C)C)c12` came in with a melting point of 110 to 112 °C.

The molecule `CCOC(CNC(=S)Nc1ccn(C)n1)OCC` registered a melting point of 152 to 155 °C.

As to `CCCc1c(OCCCCCc2c(Cl)ccc(O)c2O)ccc(C(=O)O)c1O`, the melting point fell in the range of 178 to 181 °C.

`CCc1cc2cc([N+](=O)[O-])ccc2o1` had a melting point of 86 °C.

`N#CC1C2OCC(O2)C(OCc2ccccc2)C1O` (configuration not stated) registered a melting point of 152 to 156 °C.

On to `N=C(N)NC(=O)c1cc(-c2cccc(N)c2)nc2ccccc12`, for which the melting point lay in the range of 209 to 210 °C.

In the case of `O=C(O)COc1cccc2c1CCc1sc(SCCC(c3ccccc3)c3ccccc3)nc1-2`, the melting point is 128 to 130 °C.

As for `Clc1cccc(Nn2cnc3c2CCCC3)c1`, the melting point was 180 °C.

As to `COc1cc(-c2cnc3[nH]cc(C(=O)CCC(C)OC)c3n2)cc(OC)c1OC` (configuration not stated), the melting point lay in the range of 150 to 151 °C.

Regarding `CC12C=CCC1c1ccc3cc(O)ccc3c1CC2` (configuration not stated), the melting point lay within 162 to 163 °C.

Molecule `CCOC(=O)C1=C(N)NC(N)=C(C(=O)OCC)C1c1cccc([N+](=O)[O-])c1` returned a melting point of 175 to 176 °C.

For `Cc1c(CC(=O)O)c2cc(OCc3csc(-c4ccc(C(F)(F)F)cc4)n3)ccc2n1Cc1ccc(Cl)cc1`, the melting point was 196 to 197 °C.

`CCOCc1cc2ccccc2oc1=Nc1ccc(F)cc1`: the melting point was 84 to 86 °C.

The molecule `COc1ccc(-c2ccn(-c3ccc4c5c(n(C)c4c3)CN(C(=O)OC(C)(C)C)CC5)c(=O)c2)cc1` yielded a melting point of 306 to 308 °C.

Molecule `C=CC1(CO)OC(OC2C(COCc3ccccc3)OC(OC)C(OCc3ccccc3)C2OCc2ccccc2)C(OC(C)=O)C(OC)C1O` (configuration not stated) came in with a melting point of 53 °C.

`Fc1ccc(OC2CN(CCc3c[nH]c4ccccc34)C2)cc1` registered a melting point of 111 to 113 °C.

Consider `C=C(C)CN(c1ncnc2c1ncn2C1OC(CO)C(O)C1O)C1CCCCC1` (configuration not stated), for which the melting point fell in the range of 110 to 112 °C.

The molecule `CCN1CC(=O)N(CCc2ccccc2)C1=S` gave a melting point of 66 to 68 °C.

The molecule `CCOC(=O)c1cc2cc([N+](=O)[O-])ccc2s1` displayed a melting point of 163 °C.

With `Cc1ccc(-c2nc(C)c(C)c(=O)[nH]2)cc1`, the melting point is 250 °C.

`CC(C)Oc1ccc(CCCOc2nn(C)cc2CC(=O)O)c(Oc2ncc(C(F)(F)F)cc2Cl)c1` showed a melting point of 92 to 94 °C.

Regarding `COc1cc2ccc(-c3ccc(C(=O)O)cc3)cc2cc1C(C)(C)C`, the melting point stood at 283 °C.

For `N#CC1(c2ccc(OC(F)F)c(OC3CCCC3)c2)CCC(=O)CC1`, the melting point was in the range of 76 to 78 °C.

With `CCc1nc2c(C(N)=O)cccc2n1-c1ccc(CCNC(=O)NS(=O)(=O)c2ccc(C)cc2)cc1`, the melting point was 208 to 214 °C.

Take `CCOC(=O)c1cnc2nc(C)ccc2c1OCC`: the melting point was in the range of 82 to 83 °C.

Consider `NCc1cccnc1C1CCN(c2c(F)c(N)c3c(=O)c(C(=O)O)cn(C4CC4)c3c2F)C1` (configuration not stated), for which the melting point was 226 to 228 °C.

Turning to `O=C1C=C(NNc2ccccc2)CCN1`, the melting point was 165 to 168 °C.

As for `O=C(Nc1cccc(-c2ccc(C(=O)O)cc2)c1)OCC1c2ccccc2-c2ccccc21`, the melting point was 110 to 112 °C.

On to `Cc1oc(-c2ccco2)nc1/C=C/c1ccc(C=CC=C2OC(=O)NC2=O)cc1`, for which the melting point fell in the range of 290 to 291 °C.

For `CCc1c(CCNC(=O)CCCCC(=O)O)ccc(OC)c1OC`, the melting point lay within 92 to 94 °C.
